The source of these data is patent US9724408B2, “Compositions and methods for activating stimulator of interferon gene-dependent signalling” (ADURO BIOTECH, INC., priority 2013, dated 2017).

The target in one series is T1, hSTING (REF) (Homo sapiens, UniProt Q86WV6).
T1 construct: GFP; expressed in transfected cells; plasmid from the Vance Laboratory, UC Berkeley
Put plainly: IFNβ-LUC reporter in HEK293T cells expressing hSTING (REF). The class given is cell-based. The settings on record: 10 μM, digitonin permeabilization, 6 hrs, FIG. 14. The protocol: MSCV2.2 plasmids encoding hSTING(REF)-GFP, hSTING(WT)-GFP, hSTING(HAQ)-GFP, hSTING(Q)-GFP and mSTING(WT)-GFP were obtained from the Vance Laboratory at UC Berkeley. hSTING(AQ)-GFP was derived from hSTING(Q)-GFP using a QuickChange Site-Directed Mutagenesis kit (Stratagene). […] 1×10^4 HEK293T STING cells were seeded in 96-well plates and transiently transfected (using Lipofectamine 2000) with 50 ng of a human IFN-β reporter plasmid (pLuc-IFN-β) expressing the human IFN-β promoter upstream of a luciferase reporter and 10 ng of TK-renilla for normalization. 24 hours later, cells were stimulated with native and synthetic CDN derivative molecules using digitonin permeabalization to ensure uniform uptake. Each STING cell line was stimulated with 10 μM of cyclic [G(3′,5′)pA(3′,5′)p] (cGAMP), cyclic [G(2′,5′)pA(3′,5′)p] […] (RR-CDA), cyclic [A(2′,5′)pA(3′,5′)p] […] (RR-CDG), cyclic [G(2′,5′)pG(3′,5′)p] […] (ML RR-CDG) in 25 ul digitonin buffer (50 mM HEPES, 100 mM KCL, 3 mM MgCl2, 0.1 mM DTT, 85 mM Sucrose, 0.2% BSA, 1 mM ATP, 0.1 mM GTP, 10 ug/ml digitonin). After 20 min, the stimulation mixtures were removed and 200 ul of standard RPMI media was added. After stimulation for 6 hrs, cell lysates were prepared and reporter gene activity measured using the Dual Luciferase Assay System (Promega) on a Spectramax M3 luminometer.

Another series has as its system hSTING (Q). Put plainly: IFNβ-LUC reporter in HEK293T cells expressing hSTING (Q). Format: cell-based, human. The note with it: 10 μM, digitonin permeabilization, 6 hrs, FIG. 14. An excerpt:
To determine the responsiveness of the five known natural human STING variants (referred to as WT, REF, HAQ, AQ and Q) to the native and derivative molecules, a panel of human embryonic kidney (HEK) 293T cell lines that expressed the human STING alleles was generated. […] MSCV2.2 plasmids encoding hSTING(REF)-GFP, hSTING(WT)-GFP, hSTING(HAQ)-GFP, hSTING(Q)-GFP and mSTING(WT)-GFP were obtained from the Vance Laboratory at UC Berkeley. hSTING(AQ)-GFP was derived from hSTING(Q)-GFP using a QuickChange Site-Directed Mutagenesis kit (Stratagene). The sequence of the hSTING(REF) allele is also known as the Barber allele (Ishikawa, H., and Barber, G. N. (2008). Nature 455, 674-678), and has the NCBI Reference Sequence NP_938023.1. The amino acid difference between hSTING(REF) and the other WT, HAQ, AQ and Q human STING alleles are shown in FIG. 13, which is adapted from Yi et al., Plos One 8: e77846 (2013). Stable HEK 293T-derived cell lines expressing each of the individual human STING alleles were generated by FACS sorting of GFP positive cells using a Mo Flo cell sorter at the Cancer Research Laboratory Flow Cytometry Facility at UC Berkeley. 1×10^4 HEK293T STING cells were seeded in 96-well plates and transiently transfected (using Lipofectamine 2000) with 50 ng of a human IFN-β reporter plasmid (pLuc-IFN-β) expressing the human IFN-β promoter upstream of a luciferase reporter and 10 ng of TK-renilla for normalization. 24 hours later, cells were stimulated with native and synthetic CDN derivative molecules using digitonin permeabalization to ensure uniform uptake. Each STING cell line was stimulated with 10 μM of cyclic [G(3′,5′)pA(3′,5′)p] (cGAMP), cyclic [G(2′,5′)pA(3′,5′)p] (ML-cGAMP), Rp, Rp dithio cyclic [G(2′,5′)pA(3′,5′)p] […] (CDA), Rp, Rp dithio cyclic [A(3′,5′)pA(3′,5′)p] (RR-CDA), cyclic [A(2′,5′)pA(3′,5′)p] (ML-CDA), Rp, Rp dithio cyclic [A(2′,5′)pA(3′,5′)p] (ML RR-CDA), cyclic [G(3′,5′)pG(3′,5′)p] (CDG), Rp, Rp dithio cyclic [G(3′,5′)pG(3′,5′)p] (RR-CDG), cyclic [G(2′,5′)pG(3′,5′)p] (ML-CDG) or Rp, Rp dithio cyclic [G(2′,5′)pG(3′,5′)p] (ML RR-CDG) in 25 ul digitonin buffer (50 mM HEPES, 100 mM KCL, 3 mM MgCl2, 0.1 mM DTT, 85 mM Sucrose, 0.2% BSA, 1 mM ATP, 0.1 mM GTP, 10 ug/ml digitonin). After 20 min, the stimulation mixtures were removed and 200 ul of standard RPMI media was added. After stimulation for 6 hrs, cell lysates were prepared and reporter gene activity measured using the Dual Luciferase Assay System (Promega) on a Spectramax M3 luminometer.

Series [1] relates to snake venom phosphodiesterase (SVPD).
Another series deals with T2, Nuclease P1 (NP1) (Penicillium citrinum, UniProt P24289).
T2 sequence (P24289 1-270): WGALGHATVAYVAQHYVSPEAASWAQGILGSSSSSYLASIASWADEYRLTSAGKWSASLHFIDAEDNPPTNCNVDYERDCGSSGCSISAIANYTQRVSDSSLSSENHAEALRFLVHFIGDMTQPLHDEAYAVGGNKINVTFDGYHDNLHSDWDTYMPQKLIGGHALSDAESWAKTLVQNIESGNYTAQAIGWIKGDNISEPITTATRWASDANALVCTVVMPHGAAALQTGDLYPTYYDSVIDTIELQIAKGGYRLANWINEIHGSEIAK
Kind of series: Resistance to Nuclease P1, read out in THP1-Blue ISG cells. The settings on record: 2.5 mU NP1, 2 hr at 37° C., then 50 μM on THP1-Blue ISG cells, FIG. 12.

The subject of the next series is THP1-Blue™ ISG cells. Kind of series: Type I interferon induction in THP1-Blue ISG reporter cells (QUANTI-Blue, A655). The class given is cell-based, human. The note with it: 50 μM, mock treated, 16 hr incubation, FIG. 12. Here is the method:
To determine the relative level of type I interferon induced in human cells by each of the native and derivative molecules as a signature of adjuvant potency, 4×10^5 THP1-Blue™ ISG cells (a human monocyte cell line transfected with an IRF-inducible secreted embryonic alkaline phosphatase reporter gene (Invivogen) which express alkaline phosphatase under the control of a promoter comprised of five IFN-stimulated response elements) were incubated with 100 μM of cyclic [G(3′,5′)pG(3′,5′)p] (CDG), cyclic [G(2′,5′)pG(3′,5′)p] (mixed linkage, or ML-CDG), or HBSS for 30 minutes at 37° C. with 5% CO2. After 30 minutes, cells were washed and plated in 96-well dish in RPMI media containing 10% FBS, and incubated at 37° C. with 5% CO2. Cell culture supernatants from each sample were collected after overnight incubation, and 20 μL of the cell culture supernatants was added to 180 μL QUANTI-Blue reagent (Invivogen) and incubated for 45 minutes to evaluate type I interferon protein levels. Readings at Absorbance 655 nm were taken every 3 minutes using a Versa Max kinetic spectrophotometer (Molecular Diagnostics).
[…]. After 30 minutes, cells were washed and plated in 96-well dish in RPMI media containing 10% FBS, and incubated at 37° C. with 5% CO2. Cell culture supernatants from each sample were collected after overnight incubation, and 20 μL of the cell culture supernatants was added to 180 μL QUANTI-Blue reagent (Invivogen) and incubated for 45 minutes. Readings at Absorbance 655 nm were taken at 15 minutes using a SpectraMax spectrophotometer (Molecular Diagnostics).
The induction of type I interferon in human cells was measured to evaluate the potency of untreated and phosphodiesterase-treated oxo, Rp monothio and Rp, Rp dithio derivatives. […]. After 30 minutes, cells were washed and plated in a 96-well dish in RPMI media containing 10% FBS, and incubated at 37° C. with 5% CO2. Cell culture supernatants from each sample were collected after 16 hr incubation, and 20 μL of the cell culture supernatants was added to 180 μL QUANTI-Blue reagent (Invivogen) and incubated for 25 minutes to evaluate type I interferon protein levels. Readings at Absorbance 655 nm were measured with a Versa Max spectrophotometer (Molecular Diagnostics).

T1 sequence (Q86WV6 whole entry): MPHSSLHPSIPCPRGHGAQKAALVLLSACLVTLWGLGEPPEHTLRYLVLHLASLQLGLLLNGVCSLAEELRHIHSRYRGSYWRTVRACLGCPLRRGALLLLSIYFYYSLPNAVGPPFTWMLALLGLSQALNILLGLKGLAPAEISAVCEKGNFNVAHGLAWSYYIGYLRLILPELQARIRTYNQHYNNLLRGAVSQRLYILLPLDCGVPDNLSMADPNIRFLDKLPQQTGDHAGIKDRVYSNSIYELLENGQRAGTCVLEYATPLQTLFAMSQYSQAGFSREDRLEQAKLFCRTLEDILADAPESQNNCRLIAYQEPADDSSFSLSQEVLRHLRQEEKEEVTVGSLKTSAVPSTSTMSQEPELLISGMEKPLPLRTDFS

Take `Nc1ncnc2c1ncn2[C@@H]1O[C@@H]2COP(=O)(O)O[C@H]3[C@@H](O)[C@H](n4cnc5c(N)ncnc54)O[C@@H]3COP(=O)(O)O[C@H]2[C@H]1O` [CDA, cyclic[A(3′,5′)pA(3′,5′)p], reference compound]: the “IFNβ reporter response of hSTING (REF)” value on hSTING (REF) is listed as “responded poorly”. Besides, in the series on hSTING (Q), the “IFNβ reporter response of hSTING (Q)” value is on record as “responded poorly”. For the same compound, the “type I interferon inducing activity after SVPD treatment” value in series [1] was “lost activity”. Besides, the “type I interferon inducing activity after NP1 treatment” value on Nuclease P1 (NP1) is on record as “lost activity”.

Take `Nc1ncnc2c1ncn2C1OC2COP(=O)(O)OC3C(O)C(COP(=O)(S)OC2C1O)OC3n1cnc2c(N)ncnc21` (stereo not drawn) [ML R-CDA, monothio-cyclic-[A(2′,5′)pA(3′,5′)Rp]]: the “type I interferon inducing activity after SVPD treatment” value in series [1] is “susceptible to SVPD treatment”. In addition, the “type I interferon inducing activity after NP1 treatment” value at Nuclease P1 (NP1) was “retained activity after NP1 digestion”.

With `Nc1nc2c(ncn2[C@@H]2O[C@@H]3COP(=O)(S)O[C@H]4[C@@H](O)[C@H](n5cnc6c(N)ncnc65)O[C@@H]4CO[P@@](=O)(S)O[C@@H]2[C@@H]3O)c(=O)[nH]1` (stereo partly drawn) [ML RR-cGAMP, dithio-[RP,RP]-cyclic-[G(2′,5′)pA(3′,5′)p]], the “IFNβ reporter response of hSTING (Q)” value with hSTING (Q) was “responsive to stimulation”.

In the case of `Nc1ncnc2c1ncn2C1OC2COP(=O)(O)OC3C(O)C(COP(=O)(O)OC2C1O)OC3n1cnc2c(N)ncnc21` (stereo not drawn) [ML-CDA, cyclic-[A(2′,5′)pA(3′,5′)p]], in series [1], the “type I interferon inducing activity after SVPD treatment” value was “lost activity”. Also, the “type I interferon inducing activity after NP1 treatment” value at Nuclease P1 (NP1) is “lost activity”.

In the case of `Nc1ncnc2c1ncn2[C@@H]1O[C@@H]2CO[P@@](O)(=S)O[C@H]3[C@@H](O)[C@H](n4cnc5c(N)ncnc54)O[C@@H]3CO[P@@](O)(=S)O[C@H]2[C@H]1O` [RR-CDA, Rp, Rp dithio cyclic [A(3′,5′)pA(3′,5′)p], reference compound], in the series with THP1-Blue™ ISG cells, the “induction of type I interferon, untreated compounds” value is on record as “more potent inducers of type I interferon than the oxo”. In series [1], the “type I interferon inducing activity after SVPD treatment” value was “retain their potency”. The “type I interferon inducing activity after NP1 treatment” value on Nuclease P1 (NP1) is given as “retain their potency”.

For `Nc1nc2c(ncn2[C@@H]2O[C@@H]3COP(=O)(O)O[C@H]4[C@@H](O)[C@H](n5cnc6c(N)ncnc65)O[C@@H]4COP(=O)(O)O[C@H]3[C@H]2O)c(=O)[nH]1` [cGAMP, cyclic [G(3′,5′)pA(3′,5′)p], reference compound], the “IFNβ reporter response of hSTING (Q)” value with hSTING (Q) is reported as “responded poorly”.

Consider “cyclic [CDG, cyclic [G(3′,5′)pG(3′,5′)p], reference compound]”, for which, at hSTING (REF), the “IFNβ reporter response of hSTING (REF)” value is listed as “responded poorly”. Further, in the series with hSTING (Q), the “IFNβ reporter response of hSTING (Q)” value is “responded poorly”.
